Data from patent US9011853B2, “B7-H4 fusion proteins and methods of use thereof” (Amplimmune, Inc., priority 2009, dated 2015).
Values joined by “and” are separate entries in the source; they are usually repeats but may differ in a detail not shown here. Identical values can stand only once.

Tested on: serum levels of 58 analytes
Experiment: Serum biomarker analysis, quantitative immunoassay multi-analyte profiling (Rules-Based Medicine RodentMAP v2.9), AA#80
Format: in vivo, mouse
Experimental: In AA#80, serum samples were collected on Day 27, Day 34, Day 41 and Day 55 via the submandibular vein. Approximately 200 μL of blood per mouse was collected in Microtainer® serum separator tubes. Serum was removed following centrifugation and stored at <−65° C. until analysis.
Selected serum samples were sent to Rules-Based Medicine (Austin, Tex.) for quantitative immunoassay multi-analyte profiling of serum samples, with the goal of identifying biomarkers that could be used to monitor disease progression and response to B7-H4-Ig treatment. Day 27, Day 34, and Day 41 sera from the three representative mice in the B7-H4-Ig group (tag #3332, 3334, and 3338) and three representative mice in the Synagis® group (tag #3324, 3329, and 3330) were analyzed for levels of 58 analytes using the RodentMAP v2.9 Testing Service.
Data from the Rules-Based Medicine analysis was analyzed using Microsoft Excel and GraphPad Prism software. T-tests were performed to compare the levels of each analyte in the B7-H4-Ig versus Synagis® treated samples. No correction was made for multiple comparisons. Additionally, correlation coefficients were calculated for each analyte versus disease score.

For “Synagis®: humanized monoclonal IgG antibody against the F protein of Respiratory Syncytial Virus; used as a human IgG1 isotype control [reference compound]”, the “serum samples with undetectable GST-α levels” value (all samples (Day 27, 34, 41)) was 7/9, the “serum samples with TNF-α levels above the limit of detection” value (all samples (Day 27, 34, 41) (FIG. 16)) was 5/9 and the “M-CSF (Macrophage-Colony Stimulating Factor)” value (serum, Day 34, LDD 0.01795, listed as Human LgG1 Control) was 6.46 ng/mL and 6.3 ng/mL and 6.09 ng/mL. For the same substance, the “MIP-1gamma (Macrophage Inflammatory Protein-1gamma)” value (serum, Day 34, LDD 0.0736, listed as Human LgG1 Control) was 42.2 ng/mL and 41 ng/mL and 40.9 ng/mL, the “TEMP-1 (Tissue Inhibitor of Metalicproteinase Type-1)” value (serum, Day 34, LDD 0.18, listed as Human LgG1 Control) was 1.7 ng/mL and 1.88 ng/mL and 1.31 ng/mL and the “IL-5 (Interleukin-5)” value (serum, Day 34, LDD 0.194, listed as Human LgG1 Control) was 0.333 ng/mL and 0.474 ng/mL. For the same substance, the “MIP-1alpha (Macrophage Inflammatory Protein-1alpha)” value (serum, Day 34, LDD 0.2255, listed as Human LgG1 Control) was 3.13 ng/mL and 2.88 ng/mL and 2.93 ng/mL, the “MIP-3beta (Macrophage Inflammatory Protein-3beta)” value (serum, Day 34, LDD 0.465, listed as Human LgG1 Control) was 2.63 ng/mL and 2.52 ng/mL and 2.67 ng/mL and the “Tissue Factor” value (serum, Day 34, LDD 0.5175, listed as Human LgG1 Control) was 10.8 ng/mL and 10 ng/mL and 12.5 ng/mL. For the same substance, the “MPO (Myeloperoxidase)” value (serum, Day 34, LDD 0.95, listed as Human LgG1 Control) was 253 ng/mL and 254 ng/mL, the “SGOT (Serum Glutamic-Oxaloacetic Transaminase)” value (serum, Day 34, LDD 1.86, listed as Human LgG1 Control) was 75 µg/mL and 140 µg/mL and 81.9 µg/mL and the “TPO (Thromboproletin)” value (serum, Day 34, LDD 2.66, listed as Human LgG1 Control) was 36.1 ng/mL and 34.2 ng/mL and 39.8 ng/mL. For the same substance, the “SAP (Setrum Amtyloid P)” value (serum, Day 34, LDD 5.4, listed as Human LgG1 Control) was 38.4 µg/mL and 48.6 µg/mL and 38.3 µg/mL, the “MIP-2 (Macrophage Inflammatory Protein-2)” value (serum, Day 34, LDD 7.174, listed as Human LgG1 Control) was 27.2 pg/mL and 32.3 pg/mL and 33.6 pg/mL and the “MMP-9 (Matrix Metalloproteinase-9)” value (serum, Day 34, LDD 10, listed as Human LgG1 Control) was 207 ng/mL and 259 ng/mL and 283 ng/mL. For the same substance, the “MCP-1 (Monocyte Chemoattractant Protein-1)” value (serum, Day 34, LDD 16.924, listed as Human LgG1 Control) was 99.8 pg/mL and 78.3 pg/mL and 117 pg/mL, the “VCAM-1 (Vescular Cell Adhesion Molecule-1)” value (serum, Day 34, LDD 19, listed as Human LgG1 Control) was 2290 ng/mL and 2120 ng/mL and 2450 ng/mL and the “MDC (Macrophage-Derived Chemokine)” value (serum, Day 34, LDD 21.85, listed as Human LgG1 Control) was 1270 pg/mL and 1320 pg/mL and 1130 pg/mL. For the same substance, the Myoglobin (serum, Day 34, LDD 24, listed as Human LgG1 Control) was 10 ng/mL and 9.69 ng/mL and 12.7 ng/mL, the “MCP-3 (Monocyte Chemoattractant Protein-3)” value (serum, Day 34, LDD 31.36, listed as Human LgG1 Control) was 188 pg/mL and 180 pg/mL and 193 pg/mL and the “VEGF (Vescular Endotheial Cell Growth Factor)” value (serum, Day 34, LDD 38.2, listed as Human LgG1 Control) was 92.6 pg/mL and 128 pg/mL and 114 pg/mL. For the same substance, the “IP-10 (Inducible Protein-10)” value (serum, Day 34, LDD 40.28, listed as Human LgG1 Control) was 68.1 pg/mL and 52 pg/mL and 84.3 pg/mL, the “LIF (Leukemia Infabitory Factor)” value (serum, Day 34, LDD 43.6, listed as Human LgG1 Control) was 1620 pg/mL and 1430 pg/mL and the “MCP-5 (Monocyte Chemoattractant Protein-5)” value (serum, Day 34, LDD 46.38, listed as Human LgG1 Control) was 37.5 pg/mL and 46.2 pg/mL and 41 pg/mL. For the same substance, the “SCF (Stem Cell Factor)” value (serum, Day 34, LDD 75.17, listed as Human LgG1 Control) was 214 pg/mL and 182 pg/mL, the Lymphotactin (serum, Day 34, LDD 85.48, listed as Human LgG1 Control) was 219 pg/mL and 151 pg/mL and 205 pg/mL and the “VWF (Von Willebrand Factor)” value (serum, Day 34, LDD 98.6, listed as Human LgG1 Control) was 107 ng/mL and 92.4 ng/mL and 139 ng/mL. For the same substance, the “M-CSF (Macrophage-Colony Stimulating Factor)” value (serum, Day 41, LDD 0.01795, listed as Human LgG1 Control) was 6.38 ng/mL and 5.22 ng/mL and 6.37 ng/mL, the “MIP-1gamma (Macrophage Inflammatory Protein-1gamma)” value (serum, Day 41, LDD 0.0736, listed as Human LgG1 Control) was 45.4 ng/mL and 44.8 ng/mL and the “TEMP-1 (Tissue Inhibitor of Metalicproteinase Type-1)” value (serum, Day 41, LDD 0.18, listed as Human LgG1 Control) was 3.54 ng/mL and 3.21 ng/mL and 4.33 ng/mL. The “IL-5 (Interleukin-5)” value (serum, Day 41, LDD 0.194, listed as Human LgG1 Control) was 0.616 ng/mL and 0.368 ng/mL and 0.333 ng/mL, the “MIP-1alpha (Macrophage Inflammatory Protein-1alpha)” value (serum, Day 41, LDD 0.2255, listed as Human LgG1 Control) was 3.03 ng/mL and 3.13 ng/mL and 3.32 ng/mL and the “MIP-3beta (Macrophage Inflammatory Protein-3beta)” value (serum, Day 41, LDD 0.465, listed as Human LgG1 Control) was 3.27 ng/mL and 2.73 ng/mL and 2.35 ng/mL. For the same substance, the “Tissue Factor” value (serum, Day 41, LDD 0.5175, listed as Human LgG1 Control) was 10.8 ng/mL and 9.17 ng/mL and 11.7 ng/mL, the “MPO (Myeloperoxidase)” value (serum, Day 41, LDD 0.95, listed as Human LgG1 Control) was 259 ng/mL and 263 ng/mL and 240 ng/mL and the “SGOT (Serum Glutamic-Oxaloacetic Transaminase)” value (serum, Day 41, LDD 1.86, listed as Human LgG1 Control) was 84 µg/mL and 93.9 µg/mL and 78.4 µg/mL. For the same substance, the “TPO (Thromboproletin)” value (serum, Day 41, LDD 2.66, listed as Human LgG1 Control) was 38 ng/mL and 39.8 ng/mL and 32.4 ng/mL, the “SAP (Setrum Amtyloid P)” value (serum, Day 41, LDD 5.4, listed as Human LgG1 Control) was 49.2 µg/mL and 46.2 µg/mL and 48.8 µg/mL and the “MIP-2 (Macrophage Inflammatory Protein-2)” value (serum, Day 41, LDD 7.174, listed as Human LgG1 Control) was 33.6 pg/mL and 50.3 pg/mL. The “IL-6 (Interleukin-6)” value (serum, Day 41, LDD 13.852, listed as Human LgG1 Control) was 74.2 pg/mL and 67.5 pg/mL and 93.7 pg/mL, the “MCP-1 (Monocyte Chemoattractant Protein-1)” value (serum, Day 41, LDD 16.924, listed as Human LgG1 Control) was 90.2 pg/mL and 129 pg/mL and 105 pg/mL and the “VCAM-1 (Vescular Cell Adhesion Molecule-1)” value (serum, Day 41, LDD 19, listed as Human LgG1 Control) was 2130 ng/mL and 1890 ng/mL and 1900 ng/mL.
